In patent US11612576B2 (Thiogenesis Therapeutics, Inc., priority 2017, dated 2023):
Structures can show the parent of a compound that is named as a salt. Where two headings read alike, the source gives them in different places.

Key:
[1] = cited from earlier work
[2] = Physical characteristics of TTI-0102 salt forms; type: physicochemical; conditions: compared with free base
Description: TTI-0102 was prepared as in Example 14. The crude product was obtained by evaporation of water and DMF. The residue was suspended in ethyl acetate/water; precipitated dicyclohexylurea (DCU) was filtered off. The solution was evaporated and suspended in methanol. The precipitate (unreacted pantothenic acid) was filtered off. The filtrate was concentrated and then dissolved in a small volume of methanol. After addition of dichloromethane the cystamine hydrochloride precipitated and was filtered off. After evaporation of solvent, the residue was crystallized from methanol:acetone (1:10) to provide TTI-1 hydrochloride.
The tartrate salt was formed and crystallized from a MeOH:DCM mixture. The solid form was filtered off (precipitate) and filtrate was evaporated.

[3] = Rat pharmacokinetic study of compound 2: plasma cysteamine after gavage; type: in vivo, Sprague-Dawley rats; conditions: cysteamine HCl, 30 mg/kg cysteamine base
Description: The compound 2 doses were prepared for 250 gram rats, but the actual masses of the rats at the time of drug administration varied from 267-300 grams, so the actual doses, normalized to body weight, ranged from 26.1-27.1 mg/kg in group 1, 51.7-56.2 mg/kg in group 2 and 108.3-109.5 mg/kg in group 3. Nonetheless, for convenience those doses are referred to as 30, 60 and 120 mg/kg.
Plasma was obtained from blood by centrifugation and snap frozen.

[4] = rat, in vivo
Description: Thus in the discussion below, and in the accompanying figures, a “30 mg/kg” dose of TTI-0102 means 68.73 mg/kg was administered, a “60 mg/kg” dose of TTI-0102 means 137.46 mg/kg was administered and a “100 mg/kg” dose of TTI-0602 (aka compound 2) means 229.1 mg/kg was administered.
Each of the four compounds was administered via gavage to three male Sprague-Dawley rats weighing approximately 300 grams. All doses were dissolved in 2.5 milliliters of saline.
Blood samples were obtained from rats immediately after dosing (within one minute) and 10, 20, 30, 45, 60, 90, 120, 180, 240, 300 and 360 minutes after dosing via carotid artery catheters surgically implanted before the PK study. Plasma was obtained from blood by centrifugation, snap frozen and stored at −80 degrees Celsius. Several days later plasma samples were thawed on ice and each aliquoted to two paired tubes (20 μL per tube), one of which was processed for measurement of thiols (after quantitative disulfide bond reduction), while the other was processed for analysis of disulfides.
Briefly, 2.2 ul of freshly prepared 50 mM TCEP stock solution was added to 20 ul of plasma and the sample incubated at 37 degrees C. for 45 minutes. The volume of plasma in the paired (non-reduced) sample was adjusted by adding 2.2 ul of deionized water.
After the TCEP reduction step all plasma samples were deproteinized by adding 3.5 volumes of ice cold acetonitrile (ACN)/1% formic acid (FA) solution containing internal standards (77 μL of ACN/1% FA solution was added to 22.2 μL of plasma).
The denatured protein was pelleted by centrifugation at 14,000 rpm for 10 minutes at 4 degrees C. in a microcentrifuge. The supernatant (25 ul) was removed to a new tube, mixed with 75 ul of ACN/0.1% FA solution and injected directly into a 150×2 mm Atlantis hydrophilic interaction liquid chromatography (HILIC) column (Waters; Milford, Mass.). Metabolites were analyzed using a Nexera X2 U-HPLC (Shimadzu) and a Q-Exactive hybrid quadrupole Orbitrap mass spectrometer (Thermo Fisher Scientific). […]

[5] = system: P-gp, OCT2, BCRP, OATP1B1, OATP1B3, OAT1, OAT3, OCT1; conditions: in vitro; cited from earlier work
[6] = system: erythrocytes from sickle cell anemia patients; conditions: cited from earlier work
kidney fibrosis = conditions: ureteral stenosis and renal ischemia/reperfusion injury; cited from earlier work
[7] = target: T1, tissue transglutaminase (transglutaminase 2, TG2) (Homo sapiens, UniProt P21980); conditions: cited from earlier work
T1 sequence (P21980 1-687): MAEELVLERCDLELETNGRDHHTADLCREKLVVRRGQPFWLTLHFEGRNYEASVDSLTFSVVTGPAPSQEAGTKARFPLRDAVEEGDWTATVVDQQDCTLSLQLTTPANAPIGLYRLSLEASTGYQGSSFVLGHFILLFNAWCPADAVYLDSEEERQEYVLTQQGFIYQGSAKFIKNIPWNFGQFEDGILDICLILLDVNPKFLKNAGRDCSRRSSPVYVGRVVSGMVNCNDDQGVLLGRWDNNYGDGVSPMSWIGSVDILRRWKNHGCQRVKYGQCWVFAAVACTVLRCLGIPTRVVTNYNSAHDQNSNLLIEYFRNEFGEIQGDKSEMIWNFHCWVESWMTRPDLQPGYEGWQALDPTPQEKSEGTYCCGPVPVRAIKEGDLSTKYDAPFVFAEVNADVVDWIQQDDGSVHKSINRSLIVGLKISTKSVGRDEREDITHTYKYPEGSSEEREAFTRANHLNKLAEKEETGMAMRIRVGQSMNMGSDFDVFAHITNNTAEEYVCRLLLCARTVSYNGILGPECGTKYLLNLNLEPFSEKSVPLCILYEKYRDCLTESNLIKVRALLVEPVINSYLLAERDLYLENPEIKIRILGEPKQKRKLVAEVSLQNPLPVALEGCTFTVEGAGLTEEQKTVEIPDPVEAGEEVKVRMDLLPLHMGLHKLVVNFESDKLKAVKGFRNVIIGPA

[8] = system: CYP1A2, CYP2B6, CYP2C8, CYP2C9, CYP2C19, CYP2D6, CYP2E1, CYP2A6, CYP3A4; conditions: in vitro; cited from earlier work
Pseudomonas aeruginosa = conditions: cited from earlier work
xenograft models = conditions: cited from earlier work
Plasmodium Falciparum = conditions: in vitro and in mouse models of malaria; cited from earlier work
[9] = in vivo; cited from earlier work
[10] = system: matrix metalloproteinases (MMPs); conditions: high concentrations (e.g. 25 millimolar); cited from earlier work
mouse models of HD = conditions: cited from earlier work
[11] = system: CYP1A2, CYP2A6, CYP2B6, CYP2C8, CYP2C9, CYP2C19, CYP2D6, CYP2E1 and CYP3A4; conditions: in vitro; cited from earlier work
[12] = Dissolution of the dose in saline before gavage; type: physicochemical; conditions: 120 mg/kg dose (311.68 mg/kg compound 2) in 3 milliliters of saline
[13] = Cysteamine and pantetheine in rat gastrointestinal contents six hours after dosing (Example 13); type: in vivo, Sprague-Dawley rats
Description: In addition to the plasma samples, gastrointestinal contents (stomach contents, proximal small intestinal contents, distal small intestinal contents and cecum/colon contents) were obtained from rats at the end of the study (6 hours after dosing) and snap frozen. Tissue levels of cysteamine and pantetheine were measured in the gastrointestinal contents. The protocol for tissue analysis entailed (i) smashing frozen tissue fragments over dry ice to obtain small pieces; (ii) weighing several frozen tissue pieces (˜[…]) into a tared 1.5 ml microcentrifuge tube with two metal ball bearings and immediately storing on dry ice; (iii) homogenizing tissue fragments cryogenically using a Retsch Cryomill at 250 hertz for 5 minutes; (iv) thawing each sample on ice, adding two volumes of water (w:v., i.e. 2 microliters of water were added for each milligram of homogenized tissue) to make an approximately 1:3 dilution; (v) removing 20 ul of the resuspended tissue powder to a new tube, adding 2.2 ul of 50 mM TCEP (5 mM final concentration) and incubating for 45 minutes at 37 degrees C. (TCEP treated samples), or adding 2.2 ul of deioinized water in place of TCEP (no TCEP samples); (vi) adding 3.5 volumes of acetonitrile:0.1% formic acid, vortex mixing for 15 seconds, and then pelleting precipitated protein by centrifugation for 10 minutes at 14,000 rpm in a microcentrifuge at 4 degrees C.; (vii) transferring 25 ul of supernatant to a new tube containing 75 ul of ACN/0.1% FA; (vii) injecting samples on the LC-MS apparatus described above, using the same column and run conditions as for plasma samples.

Question: With `NCCS` [cysteamine bitartrate] as the compound, how does the Cmax ([1]; read-out: C max of cysteamine, cysteamine bitartrate 20 mg/kg cysteamine base equivalent) read?
Answer: The Cmax was 81.9 µM.

Question: With `CC(C)(CO)[C@@H](O)C(=O)NCCC(=O)NCCSSCCN` [acetate salt of TTI-0102] as the compound, how does the “stability of salt form” value [2] read?
Answer: Its value is “more stable than the free base”.

Question: For `Cl.NCCS` [cysteamine HCl, cysteamine hydrochloride], which “peak plasma cysteamine concentration” value [3] is on record?
Answer: The value was “over 200 uM”.

Question: What about the “time by which cysteamine concentration declined to less than half maximal” value [3] of the same compound?
Answer: Its value is no more than 90 min.

Question: What about the “time in which half of the dose is absorbed” value [4] of the same compound?
Answer: The value was “one”.

Question: What about the “time of peak observed concentration after gavage” value [4] of the same compound?
Answer: Its value is 10 min.

Question: What about the Cmax ([4]; 30 mg/kg) of the same compound?
Answer: The Cmax was roughly 55.3 µM.

Question: With `NCCS` [cysteamine, 2-aminoethanethiol] as the compound, how does the “substrate of BCRP, OATP1B1, OATP1B3, OAT1, OAT3 and OCT1” value [5] read?
Answer: The value was “not a substrate”.

Question: What about the “substrate of P-gp and OCT2” value [5] of the same compound?
Answer: The value was “is a substrate”.

Question: And the “sickling under hypoxic conditions” value [6]?
Answer: The value was “marked inhibition of sickling”.

Question: And the “efficacy in mouse models of kidney fibrosis” value (kidney fibrosis)?
Answer: The value was “effective”.

Question: And the “inhibition of tissue transglutaminase (TG2)” value [7]?
Answer: The value was “inhibits”.

Question: What about the “metabolism by CYP1A2, CYP2B6, CYP2C8, CYP2C9, CYP2C19, CYP2D6 and CYP2E1” value [8] of the same compound?
Answer: Its value is “likely to be metabolized by multiple CYP enzymes”.

Question: What about the “metabolism by CYP2A6 or CYP3A4” value [8] of the same compound?
Answer: The value was “not by CYP2A6 or CYP3A4”.

Question: And the “activity against Pseudomonas aeruginosa and other CF pathogens” value (Pseudomonas aeruginosa)?
Answer: Its value is “bactericidal”.

Question: What about the survival of mice (xenograft models) of the same compound?
Answer: The survival of mice was “prolonged survival of mice in a dose-dependent manner without toxicity”.

Question: And the “proliferation of Plasmodium Falciparum” value (Plasmodium Falciparum)?
Answer: Its value is “inhibits proliferation”.

Question: And the “half life in blood” value [9]?
Answer: Its value is “about 25 minutes”.

Question: And the “inhibition of matrix metalloproteinases” value [10]?
Answer: Its value is “inhibits”.

Question: And the “beneficial effects in R6/2 HD mouse model” value (mouse models of HD; R6/2 mouse model)?
Answer: The value was “amelioration of weight loss and motor abnormalities, and prolongation of survival”.

Question: And the “inhibition of CYP1A2, CYP2A6, CYP2B6, CYP2C8, CYP2C9, CYP2C19, CYP2D6, CYP2E1 and CYP3A4” value [11]?
Answer: The value was “not an inhibitor”.

Question: What does the source list for `NCCS.O=C(O)C(O)C(O)C(=O)O` (stereo not shown) [cysteamine bitartrate]?
Answer: fraction of cysteamine eliminated by 150 minutes (inferred) ([1]; cysteamine bitartrate 20 mg/kg): over 95%; time by which cysteamine levels returned to baseline ([1]; cysteamine bitartrate 20 mg/kg): ≤ 2 h; tissue half life of cysteamine ([1]; cysteamine bitartrate 20 mg/kg): 25 to 29 min

Question: With `NCCSSCCN` [cystamine] as the compound, how does the “inhibition of tissue transglutaminase (TG2)” value [7] read?
Answer: Its value is “TG2 inhibitor”.

Question: What about the “effects in several mouse models of Huntington's disease” value (mouse models of HD; mouse, in vivo) of the same compound?
Answer: Its value is “improves motor function and extends life-span”.

Question: Which “dissolution of dose in saline” value [12] does the source give for `CC(=O)NCCSSCCNC(=O)CCNC(=O)[C@H](O)C(C)(C)CO` [compound 2, N-acetylcysteamine-(R)-pantetheine disulfide] here?
Answer: The value was “did not completely dissolve in saline”.

Question: For `CC(C)(COP(=O)(O)O)[C@@H](O)C(=O)NCCC(=O)NCCS` [4-phosphopantetheine], which “half life in blood” value [9] is on record?
Answer: Its value is “over 3 hours”.

Question: What does the source list for `CC(C)(CO)[C@@H](O)C(=O)NCCC(=O)NCCSSCCN` [compound 1, cysteamine-(R)-pantetheine disulfide]?
Answer: fraction of small intestinal pantetheine in the form of the thiol ([13]; compound 1 100 mg/kg, no TCEP vs TCEP samples): about half; pantetheine at all levels of the gastrointestinal tract (stomach, proximal and distal small intestine, colon) ([13]; compound 1 100 mg/kg, six hours after dosing): high levels of pantetheine are present; colon contents (TCEP reduced) ([13]; compound 1, six hours after dosing): high concentrations of both cysteamine and pantetheine
